The values that follow come from patent US6358695B1, “Methods of screening for agonists and antagonists of the HNEAA81 receptor” (SmithKline Beecham Corporation, priority 1997, dated 2002).

Structures are written as SMILES.

The target of this assay is T1, HNEAA81 (Homo sapiens, UniProt Q9BPV8).
T1 construct: expressed in transfected cells; host or cells: HEK-293 (transient co-transfection)
T1 sequence (Q9BPV8 1-333 isoform Q9BPV8-2): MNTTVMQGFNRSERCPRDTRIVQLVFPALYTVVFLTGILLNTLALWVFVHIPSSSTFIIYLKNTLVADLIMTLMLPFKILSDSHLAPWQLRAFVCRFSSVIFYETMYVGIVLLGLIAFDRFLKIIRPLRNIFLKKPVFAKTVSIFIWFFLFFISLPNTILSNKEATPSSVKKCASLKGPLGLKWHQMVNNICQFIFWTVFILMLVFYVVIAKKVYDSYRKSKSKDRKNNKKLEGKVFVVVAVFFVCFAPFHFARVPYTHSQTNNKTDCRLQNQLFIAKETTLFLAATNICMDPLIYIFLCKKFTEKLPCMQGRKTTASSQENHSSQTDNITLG
The assay is described as follows: FLIPR calcium mobilisation response in HEK-293 cells transiently co-transfected with HNEAA81 and G-proteins. It is filed as cell-based. The conditions noted are these: for calcium mobilization response (in words): HEK-293 cells transfected with HNEAA81 and the G-proteins. As to the method: HEK-293 cells were transiently co-transfected with a mammalian expression plasmid encoding HNEAA81 polypeptide, along with cDNAs encoding either the promiscuous G-protein Gal6 or the chimeric G-proteins Gql5 or Gqo5and assayed on FLIPR (Fluorometric Imaging Plate Reader) for a calcium mobilisation response following addition of AP6A or AP5A or d-UDP.
A dose-dependent (EC50s ˜300 nM), calcium mobilization response was detected following addition of AP6A (response with AP5A or d-UDP not so strong) to cells transfected with HNEAA81 and the G-proteins. […] The cDNAs for both the receptor and the G-proteins had to be expressed in the HEK-293 in order to detect a functional response to these agonists.
On the technique in general: Calcium assays in cells follow changes in intracellular calcium, usually with a dye or a luminescent sensor.

`O=c1ccn(C2OC(COP(=O)(O)OP(=O)(O)O)CC2O)c(=O)[nH]1` (stereo not drawn) [d-UDP]: the “calcium mobilization response (in words)” value is listed as “not so strong”.

For the molecule `Nc1ncnc2c1ncn2C1OC(COP(=O)(O)OP(=O)(O)OP(=O)(O)OP(=O)(O)OP(=O)(O)OCC2OC(n3cnc4c(N)ncnc43)C(O)C2O)C(O)C1O` (stereo not shown) [AP5A, di-adenosine pentaphosphate], the “calcium mobilization response (in words)” value is reported as “not so strong”.

Regarding `Nc1ncnc2c1ncn2C1OC(COP(=O)(O)OP(=O)(O)OP(=O)(O)OP(=O)(O)OP(=O)(O)OP(=O)(O)OCC2OC(n3cnc4c(N)ncnc43)C(O)C2O)C(O)C1O` (stereo not shown) [AP6A, di-adenosine hexaphosphate], the “calcium mobilization response (in words)” value is “dose-dependent”. Also, the EC50 (usually the concentration at which the effect is half-maximal) (HEK-293 cells transfected with HNEAA81 and the G-proteins (Gal6 or Gql5 or Gqo5), read-out: EC50 of dose-dependent calcium mobilization response) is roughly 0.3 µM.
